# Experimental data as given in patent US20070053931A1, “Dietary supplements for treating hypertension” (ULTRA BIOTECH LIMITED, priority 2002, published 2007).
# Test system: Wistar rats
# Assay: Control of essential hypertension in Wistar rats (testosterone propionate-induced blood pressure elevation)
# Type: in vivo, rat
# Procedure: Unless otherwise specified, all compositions of interest were administered to the animals by intragastric feeding.
# To test the ability of the activated yeast compositions to reduce blood pressure, thirty-two healthy Wistar rats of average weight of about 200±20 g (8-10 months old, half of them male and the other half female) were randomly divided into four equal groups, Groups A, B, C and D. Blood pressure of each rat was measured with a manometer for three consecutive days. After three days, each rat was subcutaneously injected with 4 mg of testosterone propionate in 0.4 ml of sesame oil per day for fourteen consecutive days.
# A composition of interest (2 ml/kg/day) was then administered to each rat for sixteen consecutive days, while their blood pressure level was monitored every four days. Rats in Groups A, B, C and D received distilled water, reserpine, the activated yeast composition and the control yeast composition, respectively.
smiles,measurement,setting,value
COC(=O)[C@H]1[C@H]2C[C@@H]3c4[nH]c5cc(OC)ccc5c4CCN3C[C@H]2C[C@@H](OC(=O)c2cc(OC)c(OC)c(OC)c2)[C@@H]1OC [reserpine],Blood Pressure After Administration of a Composition,"Wistar rats made hypertensive with 4 mg/day s.c. testosterone propionate for 14 days, composition 2 ml/kg/day intragastric for sixteen consecutive days",15.3 ± 0.89 kPa
same,Change in Blood Pressure (Value in Col. 3 − Value in Col. 2),"after administration of composition vs after testosterone injection, 2 ml/kg/day intragastric, 16 days",1.4 ± 0.33 kPa
